The text below walks through data of patent publication US20190083460A1, “ANALGESIC COMPOUNDS” (ZENO ROYALTIES & MILESTONES, LLC, priority 2016, published 2019).

Structures are written as SMILES.

In this test the test system is male ICR mice. In words: Formalin Paw Test. It counts as in vivo. To be noted: 30 mg/kg intraperitoneal; for Early Phase: early/acute phase (0-10 minutes) after 2% formalin into hind paw; for Late Phase: late/tonic phase (10-35 minutes) after 2% formalin into hind paw. The protocol: One test compound or the vehicle was administered to each mouse in each test group (8 mice per group). Non-fasted male ICR mice weighing 23±3 g were used. Test compounds were administered at a concentration of 3 mg/kg, 10 mg/kg, 15 mg/kg, 30 mg/kg, 60 mg/kg, 100 mg/kg, 200 mg/kg or 300 mg/kg; morphine was administered at a concentration of 5 mg/kg; and acetaminophen was administered at a concentration of 200 mg/kg. The control group received the vehicle (5% DMSO/40% PEG400/20% HPbCD/Saline). After 30 or 60 minutes, a 2% formalin solution (0.02 mL) was injected into one hind paw (sub-plantar) of each mouse. Responses were measured every 5 minutes after the formalin injection for 35 minutes.
The results in Table A are for intraperitoneal administration. In Table A, ‘A’ designates <70 licks/sec, ‘B’ designates ≥70 licks/sec and <165 licks/sec, and ‘C’ designates ≥165 licks/sec.

Regarding `NC1CCCOCC1` (stereo not shown) [Compound I-4], the “Early Phase” value was “B (‘B’ designates ≥70 licks/sec and <165 licks/sec)”; the “Late Phase” value is “C (‘C’ designates ≥165 licks/sec)”.
As for `NC1CC2(COC2)C1` [Compound I-1], the “Early Phase” value was “B (‘B’ designates ≥70 licks/sec and <165 licks/sec)”; the “Late Phase” value was “B (‘B’ designates ≥70 licks/sec and <165 licks/sec)”.
